{"source": "patent US12433903B2", "about": "(priority 2021, dated 2025)", "system": "indomethacin induced intestinal injury", "assay": "Indomethacin-induced Crohn's disease in rats", "type": "in vivo", "protocol": "The objective of this study was to determine the efficacy of Compound 1 and Compound 2 in a model of Crohn's disease (indomethacin induced intestinal injury) in rats.\nThe study design was identical for Compound 1 and Compound 2. On study day -3, rats were weighed and distributed into treatment groups based on body weight.\nOn study day 0, treatment was initiated and continue as indicated in the Study Design Tables below. Groups 2-6 received a subcutaneous injection of indomethacin (9 mg/kg, 1 ml/kg) in 5% sodium bicarbonate (Sterile Water). On study day 1, Groups 2-6 received a second subcutaneous injection of indomethacin (8 mg/kg, 1 ml/kg) in 5% sodium bicarbonate (Sterile Water). Live phase sample & data collection specifics are outlined below. On study day 4, animals will be euthanized, a section of the small intestine will be removed and weighed. Further necropsy sample and data collection is specified below. Overall efficacy of test articles will be based on body weight, small intestine weight (10 cm), small intestine gross score, and histopathology\nAt necropsy, the small intestines were evaluated visually and given a gross score according to the following criteria: 0=Normal. 0.5=Very Minimal thickening, multifocal in area at risk. 1=Minimal thickening, fairly diffuse in area at risk. 2=Mild to moderate small intestinal/mesenteric thickening throughout area at risk. 3=Moderate thickening with 1 or more definite adhesions that would be easy to separate. 4=Marked thickening with numerous hard to separate adhesions. 5=Severe intestinal lesion resulting in death.\nPreserved 9-cm sections of small intestine were trimmed into 6 transverse sections collected at approximately equal intervals along the […] of the intestine, without bias toward lesion presence or absence. These trimmed sections were processed through graded alcohols and a clearing agent, infiltrated and embedded in paraffin, sectioned, and stained with hematoxylin and eosin (H&E).\nSmall intestine sections from all animals were examined microscopically by a board-certified veterinary pathologist, and observations were entered into a computer-assisted data retrieval system. Cross sections of small intestine were scored for inflammation and necrosis using the following criteria:\nThe area at risk for development of this lesion is generally approximately 30% of the total area of a cross section of small intestine where the mesentery attaches.\nInflammation is localized to the mesentery and intestinal area at risk for necrosis with slight extension on either side of it. […] In this case, inflammation is scored based on overall severity ranging from 0.5 (very minimal) to 5 (severe) without regard for the extent of necrosis. The mean score for necrosis and inflammation was calculated for each animal and these mean scores were then summed to arrive at a total score. Each section also has a measurement of total width of mucosal necrosis.", "key": {"[1]": {"conditions": "Group 5 (Compound 1: 200 mg/kg PO)"}, "[2]": {"conditions": "Groups 4 and 5 (Compound 1: 50 and 200 mg/kg PO)"}}}
{"smiles": "CCCCCc1cc(O)c(C/C=C(\\C)CCC=C(C)C)c(OC)c1", "note": "[Compound 1, (E)-2-(3,7-dimethylocta-2,6-dien-1-yl)-3-methoxy-5-pentylphenol]", "values": [{"measurement": "small intestine gross score compared to vehicle", "setting": "Group 4 (Compound 1: 50 mg/kg PO)", "value": "trend in lower small intestine gross score"}, {"measurement": "histopathology scores vs vehicle and dexamethasone", "setting": "[1]", "value": "significantly lower"}, {"measurement": "necrosis width vs vehicle and dexamethasone", "setting": "[1]", "value": "significantly lower"}, {"measurement": "Histopathology scores vs vehicle (Group 2) and positive control (Group 3)", "setting": "[2]", "value": "trended lower"}, {"measurement": "necrosis width vs vehicle (Group 2) and positive control (Group 3)", "setting": "[2]", "value": "trended lower"}, {"measurement": "small intestine gross score compared to vehicle", "setting": "Groups 5-6 (Compound 1: 200 and 800 mg/kg PO)", "value": "significant reductions in gross score"}, {"measurement": "small intestine weight compared to vehicle", "setting": "all three treatment groups (Groups 4-6), PO days 0-3", "value": "significantly lower"}, {"measurement": "body weight change from Study Day -3 (preventing weight loss)", "setting": "all treatment groups (Groups 4-6), PO days 0-3, in comparison to dexamethasone (Compound 2: and vehicle)", "value": "all trended towards or had significant differences in preventing weight loss"}]}
